The target in one experiment is PRMT5/MEP50 (Homo sapiens (Human), UniProt O14744). As to the kind of experiment: PRMT5 Biochemical Assay (PRMT5/MEP50 enzyme assay on peptide substrate, 3H-SAM Flashplate). Particulars: PRMT5 biochemical assay; read-out: Biochemical IC50. The text has this: S-adenosylmethionine (SAM), S-adenosylhomocysteine (SAH), bicine, KCl, Tween20, dimethylsulfoxide (DMSO), bovine skin gelatin (BSG), and Tris(2-carboxyethyl)phosphine hydrochloride solution (TCEP) were purchased from Sigma-Aldrich at the highest level of purity possible. ^3H-SAM was purchase from American Radiolabeled Chemicals with a specific activity of 80 Ci/mmol. 384-well streptavidin Flashplates were purchased from PerkinElmer.
Chain of PRMT5/MEP50 (O14744 other isoform, or with tags, fused parts or gaps): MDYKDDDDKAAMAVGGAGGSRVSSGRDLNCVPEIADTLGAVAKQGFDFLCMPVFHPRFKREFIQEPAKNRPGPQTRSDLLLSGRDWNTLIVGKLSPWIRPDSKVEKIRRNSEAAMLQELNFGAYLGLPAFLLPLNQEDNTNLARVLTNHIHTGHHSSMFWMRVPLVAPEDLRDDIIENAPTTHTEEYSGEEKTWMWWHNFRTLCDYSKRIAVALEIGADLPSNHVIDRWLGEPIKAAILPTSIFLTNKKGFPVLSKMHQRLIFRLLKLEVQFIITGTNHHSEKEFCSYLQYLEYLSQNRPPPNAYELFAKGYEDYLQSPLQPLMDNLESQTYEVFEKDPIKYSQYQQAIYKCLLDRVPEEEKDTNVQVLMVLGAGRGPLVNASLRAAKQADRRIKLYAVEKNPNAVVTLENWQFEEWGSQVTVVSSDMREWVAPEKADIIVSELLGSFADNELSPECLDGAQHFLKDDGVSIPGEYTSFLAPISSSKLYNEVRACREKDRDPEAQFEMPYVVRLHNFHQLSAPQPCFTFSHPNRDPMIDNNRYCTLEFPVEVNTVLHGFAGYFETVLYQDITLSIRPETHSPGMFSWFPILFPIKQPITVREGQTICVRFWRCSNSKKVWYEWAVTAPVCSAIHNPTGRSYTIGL
Chain of PRMT5/MEP50 (Q9BQA1 other isoform, or with tags, fused parts or gaps partner): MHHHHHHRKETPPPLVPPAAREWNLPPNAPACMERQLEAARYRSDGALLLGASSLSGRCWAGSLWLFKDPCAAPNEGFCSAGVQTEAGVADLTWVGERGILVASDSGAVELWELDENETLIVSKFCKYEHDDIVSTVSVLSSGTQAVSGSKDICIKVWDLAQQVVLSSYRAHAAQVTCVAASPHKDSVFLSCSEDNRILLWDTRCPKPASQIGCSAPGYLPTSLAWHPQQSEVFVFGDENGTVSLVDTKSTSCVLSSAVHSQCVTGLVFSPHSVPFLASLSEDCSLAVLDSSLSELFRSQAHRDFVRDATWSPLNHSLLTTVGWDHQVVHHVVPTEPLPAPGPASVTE
Peptide representative of human histone H4 residues 1-15 was synthesized with a C-terminal linker-affinity tag motif and a C-terminal amide cap by 21st Century Biochemicals. […] The sequence was Ac-[…][K-Biot]-amide (SEQ ID NO.:3).
Full-length human MEP50 (NM_024102) clone was amplified from a human testis cDNA library incorporating a 5′ sequence encoding a 6-histidine tag (MHHHHHH)(SEQ ID NO.:5) fused directly to Arg 2 of MEP50. The amplified genes were sublconed into pENTR/D/TEV (Life Technologies) and subsequently transferred by Gateway™ attL×attR recombination to pDEST8 baculvirus expression vector (Life Technologies).
Recombinant baculovirus and Baculovirus-Infected Insect Cells (BIIC) were generated according to Bac-to-Bac kit instructions (Life Technologies) and Wasilko, 2006, respectively. Protein over-expression was accomplished by infecting exponentially growing Spodoptera frugiperda (SF9) cell culture at 1.2×10^6 cell/ml with a 5000 fold dilution of BIIC stock. Infections were carried out at 27° C. for 72 hours, harvested by centrifugation, and stored at −80° C. for purification.
Flag-PRMT5/6His-MeP50 was eluted with 300 mM Imidazole in the same buffer. […] Reference: Wasilko, D. J. and S. E. Lee: “TIPS: titerless infected-cells preservation and scale-up” Bioprocess J., 5 (2006), pp. 29-32.
General Procedure for PRMT5/MEP50 Enzyme Assays on Peptide Substrates.
The assays were all performed in a buffer consisting of 20 mM Bicine (pH=7.6), 1 mM TCEP, 0.005% BSG, and 0.002% Tween20, prepared on the day of use. Compounds in 100% DMSO (1 ul) were spotted into a polypropylene 384-well V-bottom plates (Greiner) using a Platemate Plus outfitted with a 384-channel head (Thermo Scientific). DMSO (1 ul) was added to Columns 11, 12, 23, 24, rows A-H for the maximum signal control and 1 ul of SAH, a known product and inhibitor of PRMT5/MEP50, was added to columns 11, 12, 23, 24, rows I-P for the minimum signal control. A cocktail (40 ul) containing the PRMT5/MEP50 enzyme and the peptide was added by Multidrop Combi (Thermo-Fisher). The compounds were allowed to incubate with PRMT5/MEP50 for 30 min at 25 degrees Celsius, then a cocktail (10 ul) containing ^3H-SAM was added to initiate the reaction (final volume=51 ul).

Experiment [1] relates to symmetric di-methyl arginine in Z-138 cells. The experiment can be described thus: Z-138 Methylation Assay (In Cell Western for symmetric di-methyl arginine and DNA content). The note with it: Homo sapiens, Z-138, Z-138 cells, read-out: ICW EC50. It counts as cell-based. The text has this:
[formula] Where top and bottom are the normally allowed to float, but may be fixed at 100 or 0 respectively in a 3-parameter fit. The Hill Coefficient normally allowed to float but may also be fixed at 1 in a 3-parameter fit. Y is the % inhibition and X is the compound concentration. Z-138 Methylation Assay
Z-138 suspension cells were purchased from ATCC (American Type Culture Collection, Manassas, Va.). RPMI/Glutamax medium, penicillin-streptomycin, heat inactivated fetal bovine serum, and D-PBS were purchased from Life Technologies, Grand Island, N.Y., USA. Odyssey blocking buffer, 800CW goat anti-rabbit IgG (H+L) antibody, and Licor Odyssey infrared scanner were purchased from Licor Biosciences, Lincoln, Nebr., USA. Symmetric di-methyl arginine antibody was purchased from EMD Millipore, Billerica, Mass., USA. 16% Paraformaldehyde was purchased from Electron Microscopy Sciences, Hatfield, Pa., USA.
Z-138 suspension cells were maintained in growth medium (RPMI 1640 supplemented with 10% v/v heat inactivated fetal bovine serum and 100 units/mL penicillin-streptomycin) and cultured at 37° C. under 5% CO2.
Cell Treatment, in Cell Western (ICW) for Detection of Symmetric Di-Methyl Arginine and DNA Content.
Z-138 cells were seeded in assay medium at a concentration of 50,000 cells per mL to a 384-well cell culture plate with 50 μL per well. Compound (100 nL) from 384 well source plates was added directly to 384 well cell plate. Plates were incubated at 37° C., 5% CO2 for 96 hours. After four days of incubation, 40 μL of cells from incubated plates were added to poly-D-lysine coated 384 well culture plates (BD Biosciences 356697). Plates were incubated at room temperature for 30 minutes then incubated at 37° C., 5% CO2 for 5 hours. After the incubation, 40 μL per well of 8% paraformaldehyde in PBS (16% paraformaldahyde was diluted to 8% in PBS) was added to each plate and incubated for 30 minutes. Plates were transferred to a Biotek 405 plate washer and washed 5 times with 100 μL per well of wash buffer (1×PBS with 0.1% Triton X-100 (v/v)). Next 30 μL per well of Odyssey blocking buffer were added to each plate and incubated 1 hour at room temperature. Blocking buffer was removed and 20 μL per well of primary antibody was added (symmetric di-methyl arginine diluted 1:100 in Odyssey buffer with 0.1% Tween 20 (v/v)) and plates were incubated overnight (16 hours) at 4° C. Plates were washed 5 times with 100 μL per well of wash buffer. Next 20 μL per well of secondary antibody was added (1:200 800CW goat anti-rabbit IgG (H+L) antibody, 1:1000 DRAQ5 (Biostatus limited) in Odyssey buffer with 0.1% Tween 20 (v/v)) and incubated for 1 hour at room temperature. The plates were washed 5 times with 100 μL per well wash buffer then 1 time with 100 μL per well of water. Plates were allowed to dry at room temperature then imaged on the Licor Odyssey machine which measures integrated intensity at 700 nm and 800 nm wavelengths. Both 700 and 800 channels were scanned.
First, the ratio for each well was determined by:
Each plate included fourteen control wells of DMSO only treatment (minimum inhibition) as well as fourteen control wells for maximum inhibition treated with 3 μM of a reference compound (Background wells). The average of the ratio values for each control type was calculated and used to determine the percent inhibition for each test well in the plate. Reference compound was serially diluted three-fold in DMSO for a total of nine test concentrations, beginning at 3 μM. Percent inhibition was determined and IC50 curves were generated using triplicate wells per concentration of compound. […]

For another experiment, the system named is Z-138 cell line. As to the kind of experiment: Z-138 Proliferation Assay (Cell Titer Glo, 5 days). Particulars: Homo sapiens, Z-138, 120 h, Z-138 cells. The experiment is classed as cell-based. The text has this:
[formula] Z-138 Proliferation Assay
Z-138 suspension cells were purchased from ATCC (American Type Culture Collection, Manassas, Va.). RPMI/Glutamax medium, penicillin-streptomycin, heat inactivated fetal bovine serum were purchased from Life Technologies, Grand Island, N.Y., USA. V-bottom polypropylene 384-well plates were purchased from Greiner Bio-One, Monroe, N.C., USA. Cell culture 384-well white opaque plates were purchased from Perkin Elmer, Waltham, Mass., USA. Cell-Titer Glo® was purchased from Promega Corporation, Madison, Wis., USA. SpectraMax M5 plate reader was purchased from Molecular Devices LLC, Sunnyvale, Calif., USA.
Z-138 suspension cells were maintained in growth medium (RPMI 1640 supplemented with 10% v/v heat inactivated fetal bovine serum and cultured at 37° C. under 5% CO2 Under assay conditions, cells were incubated in assay medium (RPMI 1640 supplemented with 10% v/v heat inactivated fetal bovine serum and 100 units/mL penicillin-streptomycin) at 37° C. under 5% CO2.
For the assessment of the effect of compounds on the proliferation of the Z-138 cell line, exponentially growing cells were plated in 384-well white opaque plates at a density of 10,000 cells/ml in a final volume of 50 μl of assay medium. A compound source plate was prepared by performing triplicate nine-point 3-fold serial dilutions in DMSO, beginning at 10 mM (final top concentration of compound in the assay was 20 μM and the DMSO was 0.2%). A 100 nL aliquot from the compound stock plate was added to its respective well in the cell plate. […] After addition of compounds, assay plates were incubated for 5 days at 37° C., 5% CO2, relative humidity >90%.
Cell viability was measured by quantitation of ATP present in the cell cultures, adding 35 μl of Cell Titer Glo® reagent to the cell plates. Luminescence was read in the SpectraMax M5 microplate reader. The concentration of compound inhibiting cell viability by 50% was determined using a 4-parametric fit of the normalized dose response curves.

This note sets out measurements from patent US9745291B2, “PRMT5 inhibitors containing a dihydro- or tetrahydroisoquinoline and uses thereof” (Epizyme, Inc., priority 2012, dated 2017).

As a reminder, the IC50 is the point on the concentration scale where inhibition reaches its midpoint. In general, EC50 refers to the concentration giving half of the maximal effect.

Take `CN(CC1CNC1)S(=O)(=O)c1ccccc1OCC(=O)NC[C@@H](O)CN1CCc2ccccc2C1` [Compound 232]: on PRMT5/MEP50, the half-maximal inhibitory concentration (IC50) was below 0.1 µM. Besides, the concentration giving a half-maximal response (EC50) in experiment [1] is below 0.1 µM; in the experiment on Z-138 cell line, 1 to 10 µM.
Regarding `NC1CCN(S(=O)(=O)c2ccccc2OCC(=O)NC[C@@H](O)CN2CCc3ccccc3C2)C1` (stereo partly drawn) [Compound 221], the IC50 at PRMT5/MEP50 is below 0.1 µM. Moreover, the concentration giving a half-maximal response (EC50) in experiment [1] was in the range of 0.101 to 1 µM; with Z-138 cell line, 10 to 50 µM.
The corresponding values for `O=C(COc1cccc(-n2ccnc2)c1)NC[C@@H](O)CN1CCc2ccccc2C1` [Compound 194] are 0.101 to 1 µM, above 1 µM and above 20 µM.
Regarding `Cn1cnc(CCNC(=O)c2cccc(OCC(=O)NC[C@@H](O)CN3CCc4ccccc4C3)c2)c1` [Compound 218], on PRMT5/MEP50, the IC50 was 0.101 to 1 µM. Moreover, the figures for the EC50 (in experiment [1]; in the experiment on Z-138 cell line) were above 1 µM and above 20 µM, respectively.
The corresponding values for `COc1cccc2[nH]c(CCC(=O)NC[C@H](O)CN3CCc4ccccc4C3)nc12` [Compound 242] are below 0.1 µM, below 0.1 µM and 1 to 10 µM.
The corresponding values for `O=C(COc1ccccc1C1CNCC(O)C1)NC[C@@H](O)CN1CCc2ccccc2C1` (stereo partly drawn) [Compound 237] are 0.101 to 1 µM, above 1 µM and above 20 µM.
Regarding `CN(C)S(=O)(=O)c1c(OCC(=O)NC[C@@H](O)CN2CCc3ccccc3C2)cccc1N1CCNCC1` [Compound 252], the EC50 (in experiment [1]; in the experiment on Z-138 cell line) was below 0.1 µM throughout.
Take `O=C(COc1cccc2cccnc12)NC[C@@H](O)CN1CCc2ccccc2C1` [Compound 45, (R)—N-(3-(3,4-dihydroisoquinolin-2(1H)-yl)-2-hydroxypropyl)-2-(quinolin-8-yloxy)acetamide]: the IC50 at PRMT5/MEP50 was below 0.1 µM. Besides, the EC50 in the experiment on Z-138 cell line lay in the range of 0.101 to 1 µM.
`O=C(COc1ccccc1N1CCNCC1)NCC(O)CN1CCc2ccccc2C1` (stereo not drawn) [Compound 79]: on PRMT5/MEP50, the IC50 is below 0.1 µM. In the experiment with Z-138 cell line, this molecule gave an EC50 of 1 to 10 µM.
Turning to `O=C(COc1cccc2cccnc12)NC[C@H](O)CN1CCc2ccccc2C1` [Compound 44, (S)—N-(3-(3,4-dihydroisoquinolin-2(1H)-yl)-2-hydroxypropyl)-2-(quinolin-8-yloxy)acetamide], in experiment [1], the EC50 lay in the range of 0.101 to 1 µM.
For the molecule `O=C(COc1ccccc1C1CCCNC1)NCC(O)CN1CCc2ccccc2C1` (stereo not drawn) [Compound 117], the EC50 in experiment [1] was 0.101 to 1 µM; with Z-138 cell line, 1 to 10 µM.
`CN1CCN(S(=O)(=O)c2ccccc2OCC(=O)NC[C@@H](O)CN2CCc3ccccc3C2)CC1CO` (stereo partly drawn) [Compound 233]: at PRMT5/MEP50, the concentration for half-maximal inhibition (IC50) was 1 to 10 µM.
Still for that read-out and setting: with `O=C(COc1cncc(CN2CCOCC2)c1)NCC(O)CN1CCc2ccccc2C1` (stereo not drawn) [Compound 172] the figure was 0.101 to 1 µM; with `Cc1nn(C)c2cccc(OCC(=O)NCC(O)CN3CCc4ccccc4C3)c12` (stereo not drawn) [Compound 158], below 0.1 µM; with `CN1CCc2c(cccc2OCC(=O)NCC(O)CN2CCc3ccccc3C2)C1` (stereo not drawn) [Compound 99], below 0.1 µM.
For `O=C(COc1cccc2cccnc12)NCC(O)CN1CCc2ccccc2C1` (stereo not drawn) [Compound 6, N-(3-(3,4-dihydroisoquinolin-2(1H)-yl)-2-hydroxypropyl)-2-(quinolin-8-yloxy)acetamide], the 50% inhibitory concentration (IC50) at PRMT5/MEP50 was below 0.1 µM. In the experiment on Z-138 cell line, this molecule gave an EC50 of 0.101 to 1 µM.
Take `O=C(NC[C@H](O)CN1CCc2ccccc2C1)C1COc2ccccc2O1` (stereo partly drawn) [Compound 183]: the IC50 on PRMT5/MEP50 is 0.101 to 1 µM.
As to “N-(3-(3,4-dihydroisoquinolin-2(1H)-yl)-2-hydroxypropyl)-2-((5,6,7,8-tetrahydronaphthalen-1-yl)oxy)acetamide [Compound 62]”, on PRMT5/MEP50, the IC50 was in the range of 1 to 10 µM.
Regarding `C[C@H](Oc1cccc2cccnc12)C(=O)NC[C@H](O)CN1CCc2ccccc2C1` [Compound 76, (S)—N—((S)-3-(3,4-dihydroisoquinolin-2(1H)-yl)-2-hydroxypropyl)-2-(quinolin-8-yloxy)propanamide], the concentration for half-maximal inhibition (IC50) on PRMT5/MEP50 was below 0.1 µM.
Same read-out and setting: as for `[2H]C1([2H])Cc2ccccc2C([2H])([2H])N1C[C@@H](O)CNC(=O)CCc1nc2ccccc2[nH]1` [Compound 251], the figure is 0.101 to 1 µM; as for `O=C(COc1ccccc1C1CCCCC1)NCC(O)CN1CCc2ccccc2C1` (stereo not drawn) [Compound 40], below 0.1 µM.
On the same count and under the same terms, with `CC(=O)Nc1ccncc1OCC(=O)NCC(O)CN1CCc2ccccc2C1` (stereo not drawn) [Compound 162] the figure was 1 to 10 µM.
